Test results: patent publication EP0502110B1, “(HETERO) 4-ARYLMETHOXY PHENYL DIAZOLE DERIVATIVES, METHOD FOR PREPARING SAME, AND THEIR THERAPEUTICAL APPLICATIONS” (SYNTHELABO, priority 1989, dated 1991)

Assays:
MAO-B = target: T1, MAO-B (Rattus norvegicus, UniProt P19643); experiment: In vitro MAO activity assay, rat brain mitochondrial suspension, phenethylamine (PEA) as substrate; type: biochemical; conditions: 20 min preincubation, reaction time 10 min
T1 construct: en utilisant comme source d'enzyme une suspension mitochondriale du cerveau de rat; from tissue; host or cells: rat brain mitochondrial suspension
T1 sequence (P19643 1-520): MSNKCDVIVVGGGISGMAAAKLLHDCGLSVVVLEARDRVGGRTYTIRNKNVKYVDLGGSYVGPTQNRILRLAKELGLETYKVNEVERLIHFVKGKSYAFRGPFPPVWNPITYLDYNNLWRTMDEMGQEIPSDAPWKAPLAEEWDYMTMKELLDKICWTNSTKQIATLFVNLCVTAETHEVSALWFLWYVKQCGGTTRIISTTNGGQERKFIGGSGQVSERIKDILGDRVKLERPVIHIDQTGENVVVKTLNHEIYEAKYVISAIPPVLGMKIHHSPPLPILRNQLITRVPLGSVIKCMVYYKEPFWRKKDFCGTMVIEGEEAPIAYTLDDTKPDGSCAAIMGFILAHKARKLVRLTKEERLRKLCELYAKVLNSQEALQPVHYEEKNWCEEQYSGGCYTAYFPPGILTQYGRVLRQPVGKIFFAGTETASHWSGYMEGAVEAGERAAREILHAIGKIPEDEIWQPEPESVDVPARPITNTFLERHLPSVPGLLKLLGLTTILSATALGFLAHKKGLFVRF
Protocol: (§1) L'activité inhibitrice de la monoamine oxydase de ces composés a été mise en évidence par des mesures in vitro de la MAO.
(§2) Le dosage de l'activité de la MAO a été effectué en utilisant comme source d'enzyme une suspension mitochondriale du cerveau de rat. Le dosage standard consiste à préincuber l'enzyme pendant 20 minutes en absence, puis en présence des inhibiteurs. Les activités sont déterminées en utilisant la sérotonine (5 HT) et la phénéthylamine (PEA) comme substrats de la MAO-A et de la MAO-B, les temps de réaction étant de 40 minutes avec la 5 HT et de 10 minutes avec la PEA. Le mode opératoire mis en oeuvre est celui du protocole de P.C. Baker : Dev. Biol. 14, 267, 1966.
(§3) Les activités d'un certain nombre de composés selon l'invention vis-à-vis de la MAO-B et de la MAO-A sont données par leurs constantes d'inhibition Ki (MAO-B) et Ki(MAO-A) et sont rassemblées dans le tableau ci-après. TABLEAU

MAO-A = target: T2, MAO-A (Rattus norvegicus, UniProt P21396); experiment: In vitro MAO activity assay, rat brain mitochondrial suspension, serotonin (5 HT) as substrate; type: biochemical; conditions: 20 min preincubation, substrate 5 HT, reaction time 40 min
T2 construct: en utilisant comme source d'enzyme une suspension mitochondriale du cerveau de rat; from tissue; host or cells: rat brain mitochondrial suspension
T2 sequence (P21396 1-526): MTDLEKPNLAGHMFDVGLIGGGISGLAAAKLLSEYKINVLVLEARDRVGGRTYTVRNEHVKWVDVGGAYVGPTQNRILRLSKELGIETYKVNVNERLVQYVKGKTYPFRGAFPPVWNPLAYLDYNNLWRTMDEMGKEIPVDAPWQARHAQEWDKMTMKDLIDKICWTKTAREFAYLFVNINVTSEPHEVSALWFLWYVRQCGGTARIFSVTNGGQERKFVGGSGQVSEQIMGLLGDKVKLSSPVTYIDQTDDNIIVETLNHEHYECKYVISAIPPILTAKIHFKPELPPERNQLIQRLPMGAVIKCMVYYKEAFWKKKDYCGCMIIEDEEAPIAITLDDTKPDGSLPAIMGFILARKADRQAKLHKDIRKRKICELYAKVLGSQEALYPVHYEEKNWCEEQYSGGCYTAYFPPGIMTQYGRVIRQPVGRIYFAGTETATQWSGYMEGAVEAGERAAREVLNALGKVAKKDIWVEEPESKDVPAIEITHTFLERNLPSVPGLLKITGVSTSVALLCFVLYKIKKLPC
Protocol: as §1, §2, §3

Structure (SMILES)	Ki (MAO-B) [nM]	Ki(MAO-A) (MAO-A)
COCCn1nnc(-c2ccc(OCc3ccccc3)cc2)n1 [MD 230300, (benzyloxy-4 phényl)-5 méthoxyéthyl-2 2H tétrazole]	15.6	inactif
COCCn1nnc(-c2ccc(OCc3ccc(Cl)cc3)cc2)n1 [MD 230305, [(chloro-4 benzyloxy)-4 phényl]-5 méthoxyéthyl-2 2H-tétrazole]	184	–
COCCn1nc(-c2ccc(OCc3ccc(Cl)cc3)cc2)oc1=O [MD 230306, [(chloro-4 benzyloxy)-4 phényl]-5 méthoxyéthyl-3 3H oxadiazole-1,3,4 one-2]	5	–
COCCn1nnc(-c2ccc(OCc3cccc(Cl)c3)cc2)n1 [MD 230324, [(chloro-3 benzyloxy)-4 phényl]-5 méthoxyéthyl-2 2H tétrazole]	35	–
